Reference: ChEMBL document CHEMBL1275486, “Kinetic characterization of VIM-7, a divergent member of the VIM metallo-beta-lactamase family” (Antimicrob Agents Chemother, 2008)

Experiments:
Escherichia coli [1] = test: Activity of Escherichia coli beta-lactamase VIM-1 by spectrophotometry
Escherichia coli [2] = test: Ratio of Kcat to Km for Escherichia coli beta-lactamase VIM-1 by spectrophotometry

Row | Structure (SMILES) | Km (Escherichia coli [1]) | kcat (Escherichia coli [1]) | kcat/Km (Escherichia coli [2])
1 | C[C@H]1[C@H](NC(=O)/C(=N\OC(C)(C)C(=O)O)c2csc(N)n2)C(=O)N1S(=O)(=O)O | > 1000 µM | < 0.01 s⁻¹ | 
2 | C[C@]1(Cn2ccnn2)[C@H](C(=O)O)N2C(=O)C[C@H]2S1(=O)=O | 340 µM | 5.3 s⁻¹ | 16000 M⁻¹ s⁻¹
3 | O=C(Cc1cccs1)N[C@@H]1C(=O)N2C(C(=O)O)=C(/C=C/c3ccc([N+](=O)[O-])cc3[N+](=O)[O-])CS[C@H]12 | 17 µM | 95 s⁻¹ | 5.6e+06 M⁻¹ s⁻¹
